Experimental findings from ChEMBL document CHEMBL1122862, “Synthesis and antibacterial activity of 2,2'-dithiobis(benzamide) derivatives against Mycobacterium species” (1985) are described below.

Format in all cases: functional
The test system of assay [1] is Mycobacterium tuberculosis. As to the kind of experiment: Antibacterial activity against Mycobacterium tuberculosis H37Rv.
The test system of assay [2] is Mycobacterium intracellulare. Kind of assay: Antibacterial activity against Mycobacterium intracellular.
The test system of another assay is Mycobacterium kansasii. Kind of assay: Antibacterial activity against Mycobacterium kansasii.

Molecules are shown by their SMILES. Values after ≈ are worked out from the molar mass of the structure shown.

As to `CCCCCCCCCCCCNC(=O)c1ccccc1SSc1ccccc1C(=O)NCCCCCCCCCCCC`, the MIC (as a rule, the smallest concentration in the dilution series that meets the test's criterion for growth inhibition) in assay [1] worked out at 3.13 µg/mL (≈ 4.88 µM); in assay [2] it was 50 µg/mL (≈ 78 µM); against Mycobacterium kansasii, 25 µg/mL (≈ 39 µM).

As for `O=C(O)Cc1ccc(NC(=O)c2ccccc2SSc2ccccc2C(=O)Nc2ccc(CC(=O)O)cc2)cc1`, the MIC (in assay [1]; in assay [2]; in the assay on Mycobacterium kansasii) was 100 µg/mL (≈ 175 µM) each time.

As for `O=C(NCc1ccco1)c1ccccc1SSc1ccccc1C(=O)NCc1ccco1`, the MIC (in assay [1]; in assay [2]; in the assay on Mycobacterium kansasii) was 25 µg/mL (≈ 53.8 µM) each time.

As for `O=C(Nc1cccc(Cl)c1)c1ccccc1SSc1ccccc1C(=O)Nc1cccc(Cl)c1`, the MIC turned out to be 3.13 µg/mL (≈ 5.96 µM) in assay [1], 25 µg/mL (≈ 47.6 µM) in assay [2] and 12.5 µg/mL (≈ 23.8 µM) in the assay on Mycobacterium kansasii.

Regarding `CCCCC(CC)CNC(=O)c1ccccc1SSc1ccccc1C(=O)NCC(CC)CCCC` (stereo not drawn), the MIC in assay [1] came to 1.56 µg/mL (≈ 2.95 µM); in assay [2] it was 50 µg/mL (≈ 94.5 µM); in the assay on Mycobacterium kansasii, 3.13 µg/mL (≈ 5.92 µM).

For the compound `CC(=O)OCCCNC(=O)c1ccccc1SSc1ccccc1C(=O)NCCCOC(C)=O`, the MIC in assay [1] was found to be 12.5 µg/mL (≈ 24.8 µM); in assay [2], 25 µg/mL (≈ 49.5 µM); against Mycobacterium kansasii it was 25 µg/mL (≈ 49.5 µM).

On to `O=C(Nc1ccc2ccccc2c1)c1ccccc1SSc1ccccc1C(=O)Nc1ccc2ccccc2c1`, for which the minimum inhibitory concentration (MIC) in assay [1] stood at 1.56 µg/mL (≈ 2.8 µM); in assay [2], 6.25 µg/mL (≈ 11.2 µM); with Mycobacterium kansasii, 6.25 µg/mL (≈ 11.2 µM).

As for `CCCCCCCCCCCCCCCCCCCC(=O)OCCCNC(=O)c1ccccc1SSc1ccccc1C(=O)NCCCOC(=O)CCCCCCCCCCCCCCCCCCC`, the minimum inhibitory concentration (MIC) (in assay [1]; in assay [2]; in the assay with Mycobacterium kansasii) was greater than 100 µg/mL throughout.

Turning to `CC(O)Cn1sc2ccccc2c1=O` (stereo not drawn), the MIC in assay [1] worked out at 12.5 µg/mL (≈ 59.7 µM); in assay [2] it was 12.5 µg/mL (≈ 59.7 µM); against Mycobacterium kansasii it was 25 µg/mL (≈ 119 µM).

For the compound `O=C(Nc1ccccc1Cl)c1ccccc1SSc1ccccc1C(=O)Nc1ccccc1Cl`, the minimal inhibitory concentration (MIC) in assay [1] is 25 µg/mL (≈ 47.6 µM); in assay [2], greater than 100 µg/mL; against Mycobacterium kansasii it was 100 µg/mL (≈ 190 µM).

As to `CCNC(=O)OCCNC(=O)c1ccccc1SSc1ccccc1C(=O)NCCOC(=O)NCC`, the MIC (in assay [1]; in assay [2]; with Mycobacterium kansasii) was 25 µg/mL (≈ 46.8 µM) each time.

Take `CCOC(=O)c1ccc(NC(=O)c2ccccc2SSc2ccccc2C(=O)Nc2ccc(C(=O)OCC)cc2)cc1`: the MIC in assay [1] was 3.13 µg/mL (≈ 5.21 µM); in assay [2], 25 µg/mL (≈ 41.6 µM); against Mycobacterium kansasii it was 25 µg/mL (≈ 41.6 µM).

Turning to `CC(C)(CO)NC(=O)c1ccccc1SSc1ccccc1C(=O)NC(C)(C)CO`, the MIC (in assay [1]; in assay [2]; in the assay on Mycobacterium kansasii) was 12.5 µg/mL (≈ 27.9 µM) each time.

`CCCCCCCCCCNC(=O)c1ccccc1SSc1ccccc1C(=O)NCCCCCCCCCC`: the MIC in assay [1] came out at 12.5 µg/mL (≈ 21.4 µM); in assay [2], 25 µg/mL (≈ 42.7 µM); with Mycobacterium kansasii, 12.5 µg/mL (≈ 21.4 µM).

Consider `CCCCCCC(=O)OCCCNC(=O)c1ccccc1SSc1ccccc1C(=O)NCCCOC(=O)CCCCCC`, for which the MIC in assay [1] was 0.78 µg/mL (≈ 1.21 µM); in assay [2] it was 12.5 µg/mL (≈ 19.4 µM); in the assay with Mycobacterium kansasii it was 0.39 µg/mL (≈ 0.605 µM).

Consider `O=C(NCCO)c1ccccc1SSc1ccccc1C(=O)NCCO`, for which the MIC amounted to 6.25 µg/mL (≈ 15.9 µM) in assay [1], 25 µg/mL (≈ 63.7 µM) in assay [2] and 25 µg/mL (≈ 63.7 µM) with Mycobacterium kansasii.

On to `CCOC(CN1CCN(C(=O)c2ccccc2SSc2ccccc2C(=O)N2CCN(CC(OCC)c3ccccc3)CC2)CC1)c1ccccc1` (stereo not drawn), for which the minimum inhibitory concentration (MIC) (in assay [1]; in assay [2]; against Mycobacterium kansasii) was greater than 100 µg/mL throughout.

As for `O=C(Nc1ccc(Cl)c2ccccc12)c1ccccc1SSc1ccccc1C(=O)Nc1ccc(Cl)c2ccccc12`, the MIC in assay [1] is 12.5 µg/mL (≈ 20 µM); in assay [2], greater than 100 µg/mL; against Mycobacterium kansasii, 50 µg/mL (≈ 79.9 µM).

For `CCc1cc(CC)cc(NC(=O)c2ccccc2SSc2ccccc2C(=O)Nc2cc(CC)cc(CC)c2)c1`, the MIC (in assay [1]; in assay [2]; in the assay on Mycobacterium kansasii) was greater than 100 µg/mL each time.

Consider `O=C(Nc1cccc2cccnc12)c1ccccc1SSc1ccccc1C(=O)Nc1cccc2cccnc12`, for which the minimal inhibitory concentration (MIC) was 25 µg/mL (≈ 44.7 µM) in assay [1], greater than 100 µg/mL in assay [2] and 100 µg/mL (≈ 179 µM) in the assay on Mycobacterium kansasii.

Take `O=C(NCCCCO)c1ccccc1SSc1ccccc1C(=O)NCCCCO`: the MIC came to 6.25 µg/mL (≈ 13.9 µM) in assay [1], 25 µg/mL (≈ 55.7 µM) in assay [2] and 25 µg/mL (≈ 55.7 µM) with Mycobacterium kansasii.

For the compound `CC(O)CNC(=O)c1ccccc1SSc1ccccc1C(=O)NCC(C)O` (stereo not drawn), the values for the minimal inhibitory concentration (MIC) (in assay [1]; in assay [2]; against Mycobacterium kansasii) were 1.56 µg/mL (≈ 3.71 µM), 25 µg/mL (≈ 59.4 µM) and 25 µg/mL (≈ 59.4 µM), respectively.

Regarding `CC(O)CNC(=O)c1ccc(SSc2ccc(C(=O)NCC(C)O)cc2)cc1` (stereo not drawn), the MIC in assay [1] is 100 µg/mL (≈ 238 µM); in assay [2], greater than 100 µg/mL; against Mycobacterium kansasii it was greater than 100 µg/mL.

For the compound `CN1CCN(C(=O)c2ccccc2SSc2ccccc2C(=O)N2CCN(C)CC2)CC1.Cl.Cl`, the MIC in assay [1] was 100 µg/mL; in assay [2], greater than 100 µg/mL; in the assay with Mycobacterium kansasii, greater than 100 µg/mL.

With `Cl.Cl.O=C(c1ccccc1SSc1ccccc1C(=O)N1CCN(C(c2ccccc2)c2ccccc2)CC1)N1CCN(C(c2ccccc2)c2ccccc2)CC1`, the minimum inhibitory concentration (MIC) (in assay [1]; in assay [2]; in the assay on Mycobacterium kansasii) was greater than 100 µg/mL in each case.

On to `Cl.Cl.O=C(c1ccccc1SSc1ccccc1C(=O)N1CCN(Cc2ccccc2)CC1)N1CCN(Cc2ccccc2)CC1`, for which the MIC in assay [1] was 25 µg/mL; in assay [2], greater than 100 µg/mL; in the assay on Mycobacterium kansasii, 50 µg/mL.
